Experimental findings from patent US20020036154A1, “Solid pharmaceutical dosage formulation of hydrophobic drugs” (priority 2000, published 2002) are described below.

A short description of this data set: Dissolution profiles of hydrocortisone (CCN90306A) Accudep Cores (paddles, 75 rpm, distilled water). It is filed as physicochemical. The conditions noted are these: 1 mg CCN90306A, vs control core, 75 rpm paddles, n=3, FIG. 7. Here is the method: Accudep™ Cores were made as follows: Control Accudep™ Core: Sealed a 1 mg deposition of CCN90306A between two polymer sheets with the following composition: 45% HPMC, 45% HPC, 10% PEG.

For the compound `C[C@]12CCC(=O)C=C1CC[C@@H]1[C@@H]2[C@@H](O)C[C@@]2(C)[C@H]1CC[C@]2(O)C(=O)CO` [CCN90306A, Hydrocortisone], the “dissolution at 20- and 30-minute sample points” value is given as “faster dissolution” (Polysorbate 80 incorporated in film Accudep Core (20%)) and “faster dissolution” (SLS incorporated in film Accudep Core (20% SLS)).
